Results published in ChEMBL document CHEMBL4308841, “Synthesis, in vitro antiproliferative activity, and kinase inhibitory effects of pyrazole-containing diarylureas and diarylamides” (Eur J Med Chem, 2018).

Experiments:
[1] = tested on: NCI-H226; test: Growth inhibition of human NCI-H226 cells assessed as cell growth at 1 uM incubated for 48 hrs by sulforhodamine B assay relative to control; format: functional; settings: NCI-H226, 48 h, read-out: Activity
[2] = tested on: OVCAR-5; test: Growth inhibition of human OVCAR5 cells assessed as cell growth at 0.01 uM incubated for 48 hrs by sulforhodamine B assay relative to control; format: functional; settings: OVCAR-5, 48 h, read-out: Activity
[3] = tested on: NCI/ADR-RES; test: Growth inhibition of human NCI/ADR-RES cells assessed as cell growth at 0.1 uM incubated for 48 hrs by sulforhodamine B assay relative to control; format: functional; settings: read-out: Activity
[4] = tested on: K562; test: Growth inhibition of human K562 cells assessed as cell growth at 0.1 uM incubated for 48 hrs by sulforhodamine B assay relative to control; format: functional; settings: K562, 48 h, read-out: Activity
[5] = tested on: SK-MEL-5; test: Growth inhibition of human SK-MEL-5 cells assessed as cell growth at 100 uM incubated for 48 hrs by sulforhodamine B assay relative to control; format: functional; settings: SK-MEL-5, 48 h, read-out: Activity
[6] = tested on: MCF7; test: Growth inhibition of human MCF7 cells assessed as cell growth at 0.01 uM incubated for 48 hrs by sulforhodamine B assay relative to control; format: functional; settings: MCF7, 48 h, read-out: Activity
[7] = tested on: HCT-116; test: Growth inhibition of human HCT116 cells incubated for 48 hrs by sulforhodamine B assay; format: functional, cell-based; settings: HCT-116, 48 h
[8] = tested on: SF-268; test: Growth inhibition of human SF268 cells assessed as cell growth at 0.01 uM incubated for 48 hrs by sulforhodamine B assay relative to control; format: functional; settings: SF-268, 48 h, read-out: Activity
[9] = tested on: T47D; test: Growth inhibition of human T47D cells incubated for 48 hrs by sulforhodamine B assay; format: functional, cell-based
[10] = tested on: SK-MEL-5; test: Growth inhibition of human SK-MEL-5 cells assessed as cell growth at 0.1 uM incubated for 48 hrs by sulforhodamine B assay relative to control; format: functional; settings: SK-MEL-5, 48 h, read-out: Activity
[11] = tested on: A549; test: Growth inhibition of human A549/ATCC cells incubated for 48 hrs by sulforhodamine B assay; format: functional, cell-based; settings: A549, 48 h
[12] = tested on: CAKI-1; test: Growth inhibition of human Caki1 cells assessed as cell growth at 0.1 uM incubated for 48 hrs by sulforhodamine B assay relative to control; format: functional; settings: CAKI-1, 48 h, read-out: Activity
[13] = tested on: KM12; test: Growth inhibition of human KM12 cells assessed as cell growth at 100 uM incubated for 48 hrs by sulforhodamine B assay relative to control; format: functional; settings: KM12, 48 h, read-out: Activity
[14] = tested on: NCI-H23; test: Growth inhibition of human NCI-H23 cells assessed as cell growth at 1 uM incubated for 48 hrs by sulforhodamine B assay relative to control; format: functional; settings: NCI-H23, 48 h, read-out: Activity
[15] = tested on: SNB-75; test: Growth inhibition of human SNB75 cells assessed as cell growth at 0.1 uM incubated for 48 hrs by sulforhodamine B assay relative to control; format: functional; settings: SNB-75, 48 h, read-out: Activity
[16] = tested on: UACC-62; test: Growth inhibition of human UACC62 cells assessed as cell growth at 0.01 uM incubated for 48 hrs by sulforhodamine B assay relative to control; format: functional; settings: UACC-62, 48 h, read-out: Activity
[17] = tested on: MDA-MB-468; test: Growth inhibition of human MDA-MB-468 cells incubated for 48 hrs by sulforhodamine B assay; format: functional, cell-based; settings: MDA-MB-468, 48 h
[18] = tested on: RPMI-8226; test: Growth inhibition of human RPMI8226 cells assessed as cell growth at 0.01 uM incubated for 48 hrs by sulforhodamine B assay relative to control; format: functional; settings: RPMI-8226, 48 h, read-out: Activity
[19] = tested on: K562; test: Growth inhibition of human K562 cells assessed as cell growth at 100 uM incubated for 48 hrs by sulforhodamine B assay relative to control; format: functional; settings: K562, 48 h, read-out: Activity
[20] = tested on: MDA-MB-468; test: Growth inhibition of human MDA-MB-468 cells assessed as cell growth at 1 uM incubated for 48 hrs by sulforhodamine B assay relative to control; format: functional; settings: MDA-MB-468, 48 h, read-out: Activity
[21] = tested on: SN12C; test: Growth inhibition of human SN12C cells assessed as cell growth at 0.1 uM incubated for 48 hrs by sulforhodamine B assay relative to control; format: functional; settings: read-out: Activity
[22] = tested on: LOX IMVI; test: Growth inhibition of human LOXIMVI cells assessed as cell growth at 0.01 uM incubated for 48 hrs by sulforhodamine B assay relative to control; format: functional; settings: read-out: Activity
[23] = tested on: NCI-H322M; test: Growth inhibition of human NCI-H322M cells assessed as cell growth at 1 uM incubated for 48 hrs by sulforhodamine B assay relative to control; format: functional; settings: read-out: Activity
[24] = tested on: HCT-15; test: Growth inhibition of human HCT15 cells assessed as cell growth at 1 uM incubated for 48 hrs by sulforhodamine B assay relative to control; format: functional; settings: HCT-15, 48 h, read-out: Activity
[25] = tested on: HT-29; test: Growth inhibition of human HT-29 cells assessed as cell growth at 1 uM incubated for 48 hrs by sulforhodamine B assay relative to control; format: functional; settings: HT-29, 48 h, read-out: Activity
[26] = tested on: NCI-H23; test: Growth inhibition of human NCI-H23 cells assessed as cell growth at 100 uM incubated for 48 hrs by sulforhodamine B assay relative to control; format: functional; settings: NCI-H23, 48 h, read-out: Activity
[27] = tested on: 786-0; test: Growth inhibition of human 786-0 cells assessed as cell growth at 0.1 uM incubated for 48 hrs by sulforhodamine B assay relative to control; format: functional; settings: 786-0, 48 h, read-out: Activity
[28] = tested on: COLO 205; test: Growth inhibition of human COLO205 cells incubated for 48 hrs by sulforhodamine B assay; format: functional, cell-based; settings: COLO 205, 48 h
[29] = tested on: SNB-19; test: Growth inhibition of human SNB19 cells assessed as cell growth at 0.01 uM incubated for 48 hrs by sulforhodamine B assay relative to control; format: functional; settings: SNB-19, 48 h, read-out: Activity
[30] = read-out: LC50 (the source's name)
[31] = read-out: pLC50 (the source's name) (converted)

`COc1cc(Cl)cc(-c2nn(-c3cccc(NC(=O)c4cccc(C(F)(F)F)c4)c3)cc2-c2ccncc2)c1` gave a growth at 1 µM [1] of 54%, a growth at 0.01 µM [2] of 58% and a growth at 0.1 µM [3] of 104%. For the same compound, the growth at 0.1 µM [4] was 112%, the growth at 100 µM [5] was 20% and the growth at 0.01 µM [6] was 93%. It also gave an IC50 [7] of 3.17 µM, a GI50 ([7]; read-out: GI50) of 3.17 µM and a CC50 [7, 30] of over 100 µM. It also gave a TGI ([7]; read-out: TGI) of over 100 µM, a GI50 ([7]; read-out: pGI50 (converted)) of 3.16 µM and a CC50 [7, 31] of over 100 µM. For the same compound, the TGI ([7]; read-out: pTGI (converted)) was over 100 µM, the growth at 0.01 µM [8] was 101% and the GI50 ([9]; read-out: GI50) was 4.59 µM. The CC50 [9, 30] was over 100 µM, the TGI ([9]; read-out: TGI) was over 100 µM and the GI50 ([9]; read-out: pGI50 (converted)) was 4.68 µM. It also gave a CC50 [9, 31] of over 100 µM, a TGI ([9]; read-out: pTGI (converted)) of over 100 µM and a growth at 0.1 µM [10] of 95%. The IC50 [11] was 3.62 µM, the GI50 ([11]; read-out: GI50) was 3.52 µM and the CC50 [11, 30] was over 100 µM. It also gave a TGI ([11]; read-out: TGI) of over 100 µM, a GI50 ([11]; read-out: pGI50 (converted)) of 3.63 µM and a CC50 [11, 31] of over 100 µM. For the same compound, the TGI ([11]; read-out: pTGI (converted)) was over 100 µM, the growth at 0.1 µM [12] was 94% and the growth at 100 µM [13] was 28%. The growth at 1 µM [14] was 94%, the growth at 0.1 µM [15] was 54% and the growth at 0.01 µM [16] was 98%. It also gave an IC50 [17] of 4.26 µM, a GI50 ([17]; read-out: GI50) of 4.26 µM and a CC50 [17, 30] of over 100 µM. The TGI ([17]; read-out: TGI) was over 100 µM, the GI50 ([17]; read-out: pGI50 (converted)) was 4.27 µM and the CC50 [17, 31] was over 100 µM. It also gave a TGI ([17]; read-out: pTGI (converted)) of over 100 µM, a growth at 0.01 µM [18] of 101% and a growth at 100 µM [19] of 32%. For the same compound, the growth at 1 µM [20] was 50%, the growth at 0.1 µM [21] was 99% and the growth at 0.01 µM [22] was 100%. It also gave a growth at 1 µM [23] of 90%, a growth at 1 µM [24] of 71% and a growth at 1 µM [25] of 70%. The growth at 100 µM [26] was 27%, the growth at 0.1 µM [27] was 97% and the GI50 ([28]; read-out: GI50) was 3.37 µM. The CC50 [28, 30] was over 100 µM, the TGI ([28]; read-out: TGI) was over 100 µM and the GI50 ([28]; read-out: pGI50 (converted)) was 33.9 µM. It also gave a CC50 [28, 31] of over 100 µM, a TGI ([28]; read-out: pTGI (converted)) of over 100 µM and a growth at 0.01 µM [29] of 96%.
With `COc1cc(Cl)cc(-c2nn(-c3cccc(NC(=O)Nc4cc(C(F)(F)F)cc(C(F)(F)F)c4)c3)cc2-c2ccncc2)c1` the growth at 1 µM [1] was 41%, the growth at 0.01 µM [2] was 99% and the growth at 0.1 µM [3] was 95%. For the same compound, the growth at 0.1 µM [4] was 91%, the growth at 100 µM [5] was -70% and the growth at 0.01 µM [6] was 58%. The IC50 [7] was 0.33 µM, the GI50 ([7]; read-out: GI50) was 0.332 µM and the TGI ([7]; read-out: TGI) was 1.27 µM. It also gave a GI50 ([7]; read-out: pGI50 (converted)) of 0.331 µM, a CC50 [7, 31] of 6.61 µM and a TGI ([7]; read-out: pTGI (converted)) of 1.26 µM. For the same compound, the growth at 0.01 µM [8] was 97%, the IC50 [9] was 0.39 µM and the GI50 ([9]; read-out: GI50) was 0.39 µM. The CC50 [9, 30] was over 100 µM, the TGI ([9]; read-out: TGI) was 4.16 µM and the GI50 ([9]; read-out: pGI50 (converted)) was 0.389 µM. For the same compound, the CC50 [9, 31] was over 100 µM, the TGI ([9]; read-out: pTGI (converted)) was 4.17 µM and the growth at 0.1 µM [10] was 97%. For the same compound, the IC50 [11] was 0.37 µM, the GI50 ([11]; read-out: GI50) was 0.372 µM and the CC50 [11, 30] was 3.48 µM. It also gave a TGI ([11]; read-out: TGI) of 4.68 µM, a GI50 ([11]; read-out: pGI50 (converted)) of 0.372 µM and a CC50 [11, 31] of 34.7 µM. It also gave a TGI ([11]; read-out: pTGI (converted)) of 4.68 µM, a growth at 0.1 µM [12] of 95% and a growth at 100 µM [13] of -83%. The growth at 1 µM [14] was 8%, the growth at 0.1 µM [15] was 74% and the growth at 0.01 µM [16] was 96%. The IC50 [17] was 0.34 µM, the GI50 ([17]; read-out: GI50) was 0.336 µM and the CC50 [17, 30] was over 100 µM. For the same compound, the TGI ([17]; read-out: TGI) was 2.52 µM, the GI50 ([17]; read-out: pGI50 (converted)) was 0.339 µM and the CC50 [17, 31] was over 100 µM. It also gave a TGI ([17]; read-out: pTGI (converted)) of 2.51 µM, a growth at 0.01 µM [18] of 93% and a growth at 100 µM [19] of -42%. For the same compound, the growth at 1 µM [20] was 15%, the growth at 0.1 µM [21] was 97% and the growth at 1 µM [23] was 49%. The growth at 1 µM [24] was 17%, the growth at 1 µM [25] was 23% and the growth at 100 µM [26] was -58%. For the same compound, the growth at 0.1 µM [27] was 92%, the IC50 [28] was 0.45 µM and the GI50 ([28]; read-out: GI50) was 0.448 µM. For the same compound, the TGI ([28]; read-out: TGI) was 1.88 µM, the GI50 ([28]; read-out: pGI50 (converted)) was 0.447 µM and the CC50 [28, 31] was 6.92 µM. It also gave a TGI ([28]; read-out: pTGI (converted)) of 1.86 µM and a growth at 0.01 µM [29] of 89%.
